The numbers were not newly measured in patent US6555228B2, “Bio-supportive medium, and methods of making and using the same” (priority 2000, dated 2003), which cites them from elsewhere.

SMILES strings stand for the structures.

One series has as its system Torla (=Candida) utilis. The note with it: pH 7, simple form.
For the next series, the system named is Ophyotrocha Labronica. The note with it: 0.1 mg L^−1 of copper.
A further series deals with Artemia salina. The following applies: 1.0 mg L^−1 of copper.
In a further series the test system is several dinoflagelates. The note with it: until organic chelation occurs.
Series [1] relates to other classes of organisms.
For series [2], the system named is Barnacles and zebra mussels.
The subject of series [3] is Thalassiosira weissflogii. The following applies: very low concentrations.

Take `[Cu+2]` [copper]: the “amount of copper toxic to Torla (=Candida) utilis” value in the series with Torla (=Candida) utilis is 20 mg. Moreover, the “growth rate of Ophyotrocha Labronica” value in the series with Ophyotrocha Labronica is on record as “decreased significantly”. Also, the “growth rate of Artemia salina” value with Artemia salina is reported as “no change”. In addition, in the series on most habitats, the “generally available copper with no measurable negative effect” value is on record as “below 0.62 mg/l”. In addition, in the series with several dinoflagelates, the “effect of copper on dinoflagelates” value was “inhibit”. In the series with some species, the lethal dose is recorded as 10 ppm. For the same compound, the “concentration at which biolimiting occurs” value in series [1] is given as not below 40 ppm. Further, in [2], the tolerance of copper entry is recorded as “can not tolerate any copper”.

Consider `[Zn+2]` [zinc], for which the “effect of zinc ion activity on growth” value in [3] is recorded as “growth limiting effect”.
